Values of other authors in patent US8309108B2, “Intranasal compositions” (Archimedes Development Limited, priority 2007, dated 2012).
Counter-ions that a name gives are not always drawn.

Conditions: room temperature

Saturated aqueous solubility: around 20 mg/ml
SMILES: CN1CCc2cccc3c2C1Cc1ccc(O)c(O)c1-3 (stereo not shown) [apomorphine hydrochloride, 6aβ-aporphine-10,11-diol]
